# Data taken from patent US20240425480A1, “NOVEL PYRIDINE DERIVATIVE COMPOUND AS RON INHIBITOR” (LG CHEM, LTD., priority 2021, published 2024).
# pIC50: −log10 of the molar value.
# Key:
# RON = RON (Homo sapiens, UniProt Q04912); assay: Inhibitory activity against RON, TR-FRET kinase assay; assay type: biochemical; details: TR-FRET enzyme assay
# Summary of the method: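 Compounds (3-fold series from a 1 mM DMSO stock) were preincubated 20–30 min at RT with RON (0.4 nM solution) in pH 7.4 HEPES, 10 mM MgCl2 buffer. A 2× cocktail of 40 uM ULight-Poly GT and 100 nM ATP was then added for 60 min at RT. After EDTA stop, Eu anti-phosphotyrosine TR-FRET (665/620 nm) was read and IC50 derived.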
# cMET = cMET (Homo sapiens, UniProt P08581); assay: Inhibitory activity against MET (cMET), TR-FRET kinase assay; assay type: biochemical; details: TR-FRET enzyme assay
# Summary of the method: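 Human cMET (2 nM dilution) preincubated with compound 20-30 min at room temperature in HEPES pH 7.4 buffer with MnCl2/MgCl2, then 60 min with TK peptide and ATP substrate cocktail (5 uM peptide, 10 mM ATP, prepared at 2× final). EDTA-stopped; europium anti-phosphotyrosine TR-FRET read at 620/665 nm; pIC50 derived.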
# Chain of RON (Q04912 25-1400, species assumed): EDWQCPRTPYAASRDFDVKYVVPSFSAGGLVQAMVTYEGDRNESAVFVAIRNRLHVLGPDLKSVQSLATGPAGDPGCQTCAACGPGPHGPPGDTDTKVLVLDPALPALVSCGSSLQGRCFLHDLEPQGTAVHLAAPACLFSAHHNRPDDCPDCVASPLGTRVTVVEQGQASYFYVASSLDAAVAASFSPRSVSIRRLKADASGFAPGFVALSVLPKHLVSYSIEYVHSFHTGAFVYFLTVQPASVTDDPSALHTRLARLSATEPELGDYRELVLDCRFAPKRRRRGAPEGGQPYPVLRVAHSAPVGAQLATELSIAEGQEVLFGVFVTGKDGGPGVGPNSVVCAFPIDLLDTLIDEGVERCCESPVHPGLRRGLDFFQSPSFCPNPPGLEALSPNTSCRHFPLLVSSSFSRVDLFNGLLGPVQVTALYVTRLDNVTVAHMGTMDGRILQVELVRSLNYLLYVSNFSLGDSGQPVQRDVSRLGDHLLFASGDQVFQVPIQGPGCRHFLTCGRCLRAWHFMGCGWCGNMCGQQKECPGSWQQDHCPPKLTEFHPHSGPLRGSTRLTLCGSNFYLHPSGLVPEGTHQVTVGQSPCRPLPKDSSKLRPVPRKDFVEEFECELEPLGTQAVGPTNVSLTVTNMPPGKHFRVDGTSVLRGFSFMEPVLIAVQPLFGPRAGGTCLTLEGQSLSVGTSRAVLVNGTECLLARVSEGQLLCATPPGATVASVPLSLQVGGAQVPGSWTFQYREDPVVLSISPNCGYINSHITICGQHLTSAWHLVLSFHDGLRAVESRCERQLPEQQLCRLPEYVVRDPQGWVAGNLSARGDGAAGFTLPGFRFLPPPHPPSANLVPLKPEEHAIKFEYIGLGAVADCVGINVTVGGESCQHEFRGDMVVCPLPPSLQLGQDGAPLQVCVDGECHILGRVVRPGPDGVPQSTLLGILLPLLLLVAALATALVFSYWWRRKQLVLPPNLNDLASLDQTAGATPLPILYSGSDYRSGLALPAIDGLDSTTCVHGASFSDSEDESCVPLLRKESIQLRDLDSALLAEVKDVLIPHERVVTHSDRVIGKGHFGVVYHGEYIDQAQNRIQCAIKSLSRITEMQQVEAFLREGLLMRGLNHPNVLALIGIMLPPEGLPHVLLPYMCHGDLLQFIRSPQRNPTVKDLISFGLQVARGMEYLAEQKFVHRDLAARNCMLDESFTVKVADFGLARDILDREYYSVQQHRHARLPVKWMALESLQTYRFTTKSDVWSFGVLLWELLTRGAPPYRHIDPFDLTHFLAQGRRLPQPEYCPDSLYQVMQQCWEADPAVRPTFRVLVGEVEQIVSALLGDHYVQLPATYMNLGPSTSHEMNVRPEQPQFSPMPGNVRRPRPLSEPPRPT
# Chain of cMET (P08581 25-1390): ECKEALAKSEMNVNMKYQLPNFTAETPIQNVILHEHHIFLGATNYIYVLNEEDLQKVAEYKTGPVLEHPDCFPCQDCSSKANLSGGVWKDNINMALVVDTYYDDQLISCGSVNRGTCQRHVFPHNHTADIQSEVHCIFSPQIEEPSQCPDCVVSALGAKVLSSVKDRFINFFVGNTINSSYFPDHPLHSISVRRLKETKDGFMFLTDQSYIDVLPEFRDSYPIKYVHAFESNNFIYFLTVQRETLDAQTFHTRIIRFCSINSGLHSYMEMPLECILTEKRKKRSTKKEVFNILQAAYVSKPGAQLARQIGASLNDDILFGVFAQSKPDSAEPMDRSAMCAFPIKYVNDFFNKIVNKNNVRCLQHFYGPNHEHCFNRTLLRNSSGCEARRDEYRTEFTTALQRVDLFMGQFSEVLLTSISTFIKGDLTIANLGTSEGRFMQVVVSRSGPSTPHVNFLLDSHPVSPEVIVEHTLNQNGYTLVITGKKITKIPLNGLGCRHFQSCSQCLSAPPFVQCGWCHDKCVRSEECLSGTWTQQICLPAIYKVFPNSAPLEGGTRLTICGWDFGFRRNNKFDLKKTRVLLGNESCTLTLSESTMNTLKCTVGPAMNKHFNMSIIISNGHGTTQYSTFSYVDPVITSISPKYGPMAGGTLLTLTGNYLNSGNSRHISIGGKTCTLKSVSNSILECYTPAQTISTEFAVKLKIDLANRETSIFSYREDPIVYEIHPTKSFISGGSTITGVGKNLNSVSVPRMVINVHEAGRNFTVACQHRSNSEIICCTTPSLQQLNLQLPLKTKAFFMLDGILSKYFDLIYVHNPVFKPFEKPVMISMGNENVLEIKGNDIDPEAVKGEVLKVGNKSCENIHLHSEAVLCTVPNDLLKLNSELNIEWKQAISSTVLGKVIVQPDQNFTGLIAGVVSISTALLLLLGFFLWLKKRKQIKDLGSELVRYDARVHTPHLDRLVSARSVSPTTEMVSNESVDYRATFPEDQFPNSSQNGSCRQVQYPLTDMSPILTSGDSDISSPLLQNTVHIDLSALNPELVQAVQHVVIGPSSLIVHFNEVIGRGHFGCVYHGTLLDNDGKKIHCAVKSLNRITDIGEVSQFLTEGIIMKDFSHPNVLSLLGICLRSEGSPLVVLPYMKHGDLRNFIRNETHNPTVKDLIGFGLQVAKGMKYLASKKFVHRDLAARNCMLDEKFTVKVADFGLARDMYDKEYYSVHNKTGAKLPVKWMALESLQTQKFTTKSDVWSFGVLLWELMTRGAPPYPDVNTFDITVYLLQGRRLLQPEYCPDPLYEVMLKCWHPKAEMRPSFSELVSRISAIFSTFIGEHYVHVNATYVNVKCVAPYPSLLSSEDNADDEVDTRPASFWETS
Compound,pIC50 (RON),pIC50 (cMET)
"Nc1ncnc(Oc2ccc(NC(=O)c3cnn(-c4ccncn4)c3C(F)(F)F)cc2F)c1Cl [Example 61, N-[4-(6-amino-5-chloro-pyrimidin-4-yl)oxy-3-fluoro-phenyl]-1-pyrimidin-4-yl-5-(trifluoromethyl)pyrazole-4-carboxamide]",5.30 to 6.30,< 5.30
"Cc1ccnc(-n2ncc(C(=O)Nc3ccc(Oc4ncnc(N)c4Cl)c(F)c3)c2C(F)(F)F)n1 [Example 62, N-[4-(6-amino-5-chloro-pyrimidin-4-yl)oxy-3-fluoro-phenyl]-1-(4-methylpyrimidin-2-yl)-5-(trifluoromethyl)pyrazole-4-carboxamide]",6.30 to 7.30,< 5.30
"Nc1ncnc(Oc2ccc(NC(=O)c3cnn(-c4cc(F)ccn4)c3C(F)(F)F)cc2F)c1Cl [Example 63, N-[4-(6-amino-5-chloro-pyrimidin-4-yl)oxy-3-fluoro-phenyl]-1-(4-fluoro-2-pyridyl)-5-(trifluoromethyl)pyrazole-4-carboxamide]",6.30 to 7.30,< 5.30
"Nc1ncnc(Oc2ccc(NC(=O)c3cnn(-c4cc(O)ccn4)c3C(F)(F)F)cc2F)c1Cl [Example 64, N-[4-(6-amino-5-chloro-pyrimidin-4-yl)oxy-3-fluoro-phenyl]-1-(4-hydroxy-2-pyridyl)-5-(trifluoromethyl)pyrazole-4-carboxamide]",6.30 to 7.30,< 5.30
"O=C(Nc1ccc(Oc2ncnc(NC3CC3)c2Cl)c(F)c1)c1cnn(-c2ncccc2F)c1C(F)(F)F [Example 65, N-[4-[5-chloro-6-(cyclopropylamino)pyrimidin-4-yl]oxy-3-fluoro-phenyl]-1-(3-fluoro-2-pyridyl)-5-(trifluoromethyl)pyrazole-4-carboxamide]",5.30 to 6.30,< 5.30
"O=C(Nc1ccc(Oc2ncnc(NC3CC3)c2Cl)c(F)c1)c1cnn(-c2ncccc2Cl)c1C(F)(F)F [Example 66, N-[4-[5-chloro-6-(cyclopropylamino)pyrimidin-4-yl]oxy-3-fluoro-phenyl]-1-(3-chloro-2-pyridyl)-5-(trifluoromethyl)pyrazole-4-carboxamide]",< 5.30,< 5.30
